What was measured:
first-pass cells [1] = assay: Enrichment of EPCs from first-pass cells on plasma-coated flasks in the presence of progesterone, flow-cytometry staining; assay type: cell-based, human; conditions: 0.02-2 microgram/ml progesterone, 5-20% autologous serum, VEGF, Heparin, 3 experiments
Experimental: Coating T-75 Flasks with Autologous Plasma Example 2 for High % Serum Medium Culturing Collection of Cells for FACS Staining FACS Staining In a set of separate experiments, enrichment of EPCs from first-pass cells was evaluated following in-vitro growth on autologous plasma-coated T-75 Flasks in the presence of medium containing autologous serum, VEGF, progesterone and Heparin. These experiments were conducted with human blood, using the protocol described hereinabove. […] FACS staining results of cells cultured in media containing 5-20% autologous serum (typically 10%), 1, 2, 10, or 20 ng/ml VEGF, 0.02-2 microgram/ml progesterone and 5-25 IU/ml Heparin are summarized. The following surface markers were analyzed: CD45 (a pan-lymphocyte marker), the stem/progenitor cell markers CD34 and CD117, and the EPC/endothelial cell markers CD133 and KDR (VEGF-R).

first-pass cells [2] = assay: Enrichment of EPCs from first-pass cells on plasma-coated flasks in the presence of 17-β-estradiol, flow-cytometry staining; assay type: cell-based, human; conditions: 0.002-2 microgram/ml 17-β-Estradiol, 5-20% autologous serum, VEGF, Heparin, 3 experiments
Experimental: Coating T-75 Flasks with Autologous Plasma Example 3 for High % Serum Medium Culturing Collection of Cells for FACS Staining FACS Staining In a set of separate experiments, enrichment of EPCs from first-pass cells was evaluated following in-vitro growth on autologous plasma-coated T-75 Flasks in the presence of medium containing autologous serum, VEGF, 17-beta-estradiol and Heparin. These were experiments conducted with human blood, using the protocol described hereinabove. […] FACS staining results of cells cultured in media containing 5-20% autologous serum (typically 10%), 1, 2, 10, or 20 ng/ml VEGF, 0.002-2 microgram/ml 17-β-Estradiol and 5-25 IU/ml Heparin are summarized. The following surface markers were analyzed: CD45 (a pan-lymphocyte marker), the stem/progenitor cell markers CD34 and CD117, and the EPC/endothelial cell markers CD133, and KDR (VEGF-R).

Compound | CD34 AVG percentage staining (first-pass cells [1]) [%] | CD45 AVG percentage staining (first-pass cells [1]) [%] | CD117 AVG percentage staining (first-pass cells [1]) [%] | CD133 AVG percentage staining (first-pass cells [1]) [%] | KDR AVG percentage staining (first-pass cells [1]) [%] | CD34 average percentage staining (first-pass cells [2]) [%] | CD45 average percentage staining (first-pass cells [2]) [%] | CD117 average percentage staining (first-pass cells [2]) [%] | CD133 average percentage staining (first-pass cells [2]) [%] | KDR average percentage staining (first-pass cells [2]) [%]
CC(=O)[C@H]1CC[C@H]2[C@@H]3CCC4=CC(=O)CC[C@]4(C)[C@H]3CC[C@]12C [progesterone] | 21.22 | 94.82 | 5.54 | 5.72 | 1.05 | – | – | – | – | –
C[C@]12CC[C@@H]3c4ccc(O)cc4CC[C@H]3[C@@H]1CC[C@@H]2O [17-β-estradiol] | – | – | – | – | – | 4.12 | 96.14 | 1.41 | 1.77 | 0.28

Source: US8685724B2, “In vitro techniques for use with stem cells” (Kwalata Trading Limited, priority 2004, dated 2014)
